Data reported in patent US4460582A, “3-Carboxybenzyl cephems” (Beecham Group P.L.C., priority 1981, dated 1984).
Where a name gives a salt, the structure may show the parent alone.

Experiments:
Type in all cases: cell-based
Bacillus subtilis A = assay: MIC in nutrient broth
Excerpt: (§1) The minimum inhibitory concentrations (MIC) of the
(§2) compound of Examples 2 and 4 found necessary to prevent
(§3) growth of various bacteria in nutrient broth were as […]

Citrobacter freundii E 8 = assay: MIC in nutrient broth; settings: E8
Excerpt: as §1, §2, §3

Enterobacter cloacae N 1 = assay: MIC in nutrient broth; settings: N1
Excerpt: as §1, §2, §3

Escherichia coli 0111 = assay: MIC in nutrient broth
Excerpt: as §1, §2, §3

[1] = tested on: Escherichia coli JT 39 (R^+); assay: MIC in nutrient broth
Excerpt: as §1, §2, §3

Klebsiella aerogenes A [2] = assay: MIC in nutrient broth
Excerpt: as §1, §2, §3

Proteus mirabilis 977 = assay: MIC in nutrient broth
Excerpt: as §1, §2, §3

Proteus morganii I 580 = assay: MIC in nutrient broth; settings: Morganella morganii, I580
Excerpt: as §1, §2, §3

Proteus rettgeri WM 16 = assay: MIC in nutrient broth; settings: Providencia rettgeri, WM16
Excerpt: as §1, §2, §3

Proteus vulgaris W 091 = assay: MIC in nutrient broth; settings: W091
Excerpt: as §1, §2, §3

Pseudomonas aeruginosa A = assay: MIC in nutrient broth
Excerpt: as §1, §2, §3

[3] = tested on: Salmonella typhimurium CT 10; assay: MIC in nutrient broth; settings: Salmonella enterica
Excerpt: as §1, §2, §3

[4] = tested on: Serratia marcescens US 20; assay: MIC in nutrient broth; settings: US20
Excerpt: as §1, §2, §3

Shigella sonnei MB 11967 = assay: MIC in nutrient broth; settings: MB11967
Excerpt: as §1, §2, §3

[5] = tested on: Staphylococcus aureus Oxford; assay: MIC in nutrient broth
Excerpt: as §1, §2, §3

[6] = tested on: Staphylococcus aureus Russell; assay: MIC in nutrient broth
Excerpt: as §1, §2, §3

Streptococcus faecalis I [7] = assay: MIC in nutrient broth; settings: Enterococcus faecalis
Excerpt: as §1, §2, §3

[8] = tested on: Streptococcus pneumoniae CN 33; assay: MIC in nutrient broth; settings: CN33
Excerpt: as §1, §2, §3

[9] = tested on: Streptococcus pyogenes CN 10; assay: MIC in nutrient broth; settings: CN10
Excerpt: as §1, §2, §3

Bacillus subtilis = assay: MIC on agar
Excerpt: (§4) The Minimum Inhibitory concentrations (MIC) of the compound
(§5) of Example 6 found necessary to prevent growth of various

Enterobacter cloacae N1 = assay: MIC on agar
Excerpt: as §4, §5

Escherichia coli JT425 = assay: MIC on agar
Excerpt: as §4, §5

Escherichia coli JT4 = assay: MIC on agar
Excerpt: as §4, §5

Klebsiella aerogenes A [10] = assay: MIC on agar
Excerpt: as §4, §5

[11] = tested on: Neisseria catarrhalis 1502; assay: MIC on agar
Excerpt: as §4, §5

Proteus mirabilis C977 = assay: MIC on agar
Excerpt: as §4, §5

Proteus morganii = assay: MIC on agar; settings: Morganella morganii
Excerpt: as §4, §5

Proteus rettgeri = assay: MIC on agar; settings: Providencia rettgeri
Excerpt: as §4, §5

[12] = tested on: Pseudomonas aeruginosa Dalgleish; assay: MIC on agar
Excerpt: as §4, §5

[13] = tested on: Pseudomonas aeruginosa NCTC 10662; assay: MIC on agar; settings: NCTC10662
Excerpt: as §4, §5

Serratia marcescens US32 = assay: MIC on agar
Excerpt: as §4, §5

[14] = tested on: Staphylococcus aureus Oxford; assay: MIC on agar
Excerpt: as §4, §5

[15] = tested on: Staphylococcus aureus Russell; assay: MIC on agar
Excerpt: as §4, §5

Streptococcus faecalis I [16] = assay: MIC on agar; settings: Enterococcus faecalis
Excerpt: as §4, §5

[17] = tested on: Streptococcus pyogenes CN10; assay: MIC on agar
Excerpt: as §4, §5

| Compound | MIC (Bacillus subtilis A) [µg/mL] | MIC (Citrobacter freundii E 8) [µg/mL] | MIC (Enterobacter cloacae N 1) [µg/mL] | MIC (Escherichia coli 0111) [µg/mL] | MIC [1] [µg/mL] | MIC (Klebsiella aerogenes A [2]) [µg/mL] | MIC (Proteus mirabilis 977) [µg/mL] | MIC (Proteus morganii I 580) [µg/mL] | MIC (Proteus rettgeri WM 16) [µg/mL] | MIC (Proteus vulgaris W 091) [µg/mL] | MIC (Pseudomonas aeruginosa A) [µg/mL] | MIC [3] [µg/mL] | MIC [4] [µg/mL] | MIC (Shigella sonnei MB 11967) [µg/mL] | MIC [5] [µg/mL] | MIC [6] [µg/mL] | MIC (Streptococcus faecalis I [7]) [µg/mL] | MIC [8] [µg/mL] | further results |
| --- | --- | --- | --- | --- | --- | --- | --- | --- | --- | --- | --- | --- | --- | --- | --- | --- | --- | --- | --- |
| CO/N=C(\C(=O)N[C@@H]1C(=O)N2C(C(=O)O)=C(Cc3ccc(C(=O)O)cc3)CS[C@H]12)c1csc(N)n1 [Example 2, (6R,7R)-3-(4-Carboxybenzyl)-7-[2,Z-methoxyimino-2-(2-aminothiazol-4-yl)-acetamido]ceph-3-em-4-carboxylic acid trifluoroacetic acid salt] | 25 | 25 | 3.1 | 6.2 | 6.2 | 0.2 | 0.8 | 1.6 | 12.5 | 12.5 | > 100 | 0.4 | 12.5 | 0.4 | 12.5 | 12.5 | > 100 | ≤ 0.1 | MIC [9]: ≤ 0.1 µg/mL |
| CCO/N=C(\C(=O)N[C@@H]1C(=O)N2C(C(=O)O)=C(Cc3ccc(C(=O)O)cc3)CS[C@H]12)c1csc(N)n1 [Example 4, (6R,7R)-3-(4-Carboxybenzyl)-7-[2,Z-ethoxyimino-2-(2-aminothiazol-4-yl)-acetamido]-ceph-3-em-4-carboxylic acid trifluoroacetic acid salt] | 12.5 | 100 | 50 | 3.1 | 1.6 | 0.1 | 0.2 | 100 | 100 | 3.1 | > 100 | 0.8 | 3.1 | 0.8 | 3.1 | 6.2 | > 100 | 6.2 | – |
| CC(C)(O/N=C(\C(=O)N[C@@H]1C(=O)N2C(C(=O)O)=C(Cc3ccc(C(=O)O)cc3)CS[C@H]12)c1csc(N)n1)C(=O)O [Example 6, (6R,7R)-3-(4-Carboxybenzyl)-7-[2,Z-(2-carboxyprop-2-oxyimino)-2-(2-aminothiazol-4-yl)-acetamido]-ceph-3-em-4-carboxylic acid trifluoroacetic acid salt] | – | – | – | – | – | – | – | – | – | – | – | – | – | – | – | – | – | – | MIC (Bacillus subtilis): > 100 µg/mL; MIC (Enterobacter cloacae N1): 1 µg/mL; MIC (Escherichia coli JT425): 25 µg/mL; MIC (Escherichia coli JT4): 2.5 µg/mL; MIC (Klebsiella aerogenes A [10]): 0.2 µg/mL; MIC [11]: < 0.02 µg/mL; MIC (Proteus mirabilis C977): 0.05 µg/mL; MIC (Proteus morganii): 2.5 µg/mL; MIC (Proteus rettgeri): 0.2 µg/mL; MIC [12]: 2.5 µg/mL; MIC [13]: 5 µg/mL; MIC (Serratia marcescens US32): 2.5 µg/mL; MIC [14]: 100 µg/mL; MIC [15]: > 100 µg/mL; MIC (Streptococcus faecalis I [16]): > 100 µg/mL; MIC [17]: 2.5 µg/mL |
